Test results reported in ChEMBL document CHEMBL4814006, “Novel amino substituted tetracyclic imidazo[4,5-b]pyridine derivatives: Design, synthesis, antiproliferative activity and DNA/RNA binding study” (Eur J Med Chem, 2021).
Active and inactive are the calls of the source. The rule behind the calls is not given here.

Legend:
[1] = test system: NCI-H460; experiment: Antiproliferative activity against human NCI-H460 cells assessed as inhibition of cell growth incubated for 72 hrs by MTT assay; format: functional, cell-based; details: NCI-H460, 72 h
[2] = test system: HCT-116; experiment: Antiproliferative activity against human HCT-116 cells assessed as inhibition of cell growth incubated for 72 hrs by MTT assay; format: functional, cell-based; details: HCT-116, 72 h
[3] = Selectivity index, ratio of IC50 for human HEK293 cells to IC50 for human HCT116 cells; format: toxicity; details: HEK293 cells versus HCT116 cells, read-out: Ratio IC50
[4] = test system: MCF7; experiment: Antiproliferative activity against human MCF7 cells assessed as inhibition of cell growth incubated for 72 hrs by MTT assay; format: functional, cell-based; details: MCF7, 72 h
[5] = test system: HEK293; experiment: Cytotoxicity against human HEK293 cells assessed as inhibition of cell growth incubated for 72 hrs by MTT assay; format: cell-based; details: HEK293, 72 h
[6] = test system: Poly(dA-dU)oligonucleotide; experiment: Binding affinity to polyA-polyU RNA (unknown origin) assessed as change in melting temperature in sodium cacodylate buffer at pH 7 at compound:polynucleotide concentration ratio of 0.3 by UV/vis spectrophotometric analysis; format: nucleic-acid assay
[7] = test system: Calf thymus DNA; experiment: Binding affinity to calf thymus DNA in sodium cacodylate buffer at pH 7 by CD spectroscopy; details: Bos taurus
[8] = test system: Quadruplex DNA; experiment: Binding affinity to human Tel22 G quadruplex DNA assessed as binding constant in sodium cacodylate buffer at pH 7 at binding stoichiometry ratio of 1:1 by fluorescence spectroscopy; format: nucleic-acid assay
[9] = test system: Poly(dA-dT)oligonucleotide; experiment: Binding affinity to poly(dAdT)2 DNA (unknown origin) assessed as binding constant in sodium cacodylate buffer at pH 7 by fluorescence spectroscopy; format: nucleic-acid assay
[10] = test system: Poly(dA-dT)oligonucleotide; experiment: Binding affinity to poly(dAdT)2 DNA (unknown origin) assessed as ratio of fluorescence intensity of compound-polynucleotide complex to fluorescence intensity of compound in sodium cacodylate buffer at pH 7 by fluorescence spectroscopy based Scatchard method; format: nucleic-acid assay
[11] = test system: Quadruplex DNA; experiment: Binding affinity to human Tel22 G quadruplex DNA assessed as change in melting temperature in sodium cacodylate buffer at pH 7 by UV/Vis spectrophotometric analysis; format: nucleic-acid assay
[12] = test system: Calf thymus DNA; experiment: Binding affinity to calf thymus DNA assessed as change in melting temperature in sodium cacodylate buffer at pH 7 at compound:polynucleotide concentration ratio of 0.3 by UV/Vis spectrophotometric analysis; format: nucleic-acid assay; details: Bos taurus
[13] = test system: Poly(dA-dU)oligonucleotide; experiment: Binding affinity to polyA-polyU RNA (unknown origin) assessed as ratio of bound compound to polynucleotide phosphate in sodium cacodylate buffer at pH 7 by fluorescence spectroscopy based Scatchard method; format: nucleic-acid assay
[14] = test system: Poly(dG-dC)oligonucleotide; experiment: Binding affinity to poly(dGdC)2 DNA (unknown origin) in sodium cacodylate buffer at pH 7 by CD spectroscopy; format: nucleic-acid assay
[15] = test system: Quadruplex DNA; experiment: Binding affinity to human Tel22 G quadruplex DNA assessed as ratio of fluorescence intensity of compound-polynucleotide complex to fluorescence intensity of compound in sodium cacodylate buffer at pH 7 at binding stoichiometry ratio of 1:1 by fluorescence spectroscopy; format: nucleic-acid assay
[16] = test system: Poly(dA-dT)oligonucleotide; experiment: Binding affinity to poly(dAdT)2 DNA (unknown origin) assessed as ratio of bound compound to polynucleotide phosphate in sodium cacodylate buffer at pH 7 by fluorescence spectroscopy based Scatchard method; format: nucleic-acid assay
[17] = test system: Poly(dA-dU)oligonucleotide; experiment: Binding affinity to polyA-polyU RNA (unknown origin) assessed as binding constant in sodium cacodylate buffer at pH 7 by fluorescence spectroscopy; format: nucleic-acid assay
[18] = test system: Poly(dA-dU)oligonucleotide; experiment: Binding affinity to polyA-polyU RNA (unknown origin) assessed as ratio of fluorescence intensity of compound-polynucleotide complex to fluorescence intensity of compound in sodium cacodylate buffer at pH 7 by fluorescence spectroscopy based Scatchard method; format: nucleic-acid assay
[19] = test system: Poly(dA-dT)oligonucleotide; experiment: Binding affinity to poly(dAdT)2 DNA (unknown origin) assessed as change in melting temperature in sodium cacodylate buffer at pH 7 at compound:polynucleotide concentration ratio of 0.3 by UV/Vis spectrophotometric analysis; format: nucleic-acid assay
[20] = test system: Poly(dA-dT)oligonucleotide; experiment: Binding affinity to poly(dAdT)2 DNA (unknown origin) in sodium cacodylate buffer at pH 7 by CD spectroscopy; format: nucleic-acid assay

| IC50 [1] [µM] | IC50 [2] [nM] | IC50 [4] [nM] | ΔTm [6] [°C] | log Ks [8] | log Ks [9] | Ratio [10] | ΔTm [11] [°C] | ΔTm [12] [°C] | Ratio [13] | Activity [14] | Ratio [15] | Ratio [16] | log Ks [17] | Ratio [18] | ΔTm [19] [°C] | Activity [20] | SMILES | selectivity ratio [3] | IC50 [5] [nM] | Activity [7] |
| --- | --- | --- | --- | --- | --- | --- | --- | --- | --- | --- | --- | --- | --- | --- | --- | --- | --- | --- | --- | --- |
| 4.6 | 100 | 2000 |  |  |  |  |  |  |  |  |  |  |  |  |  |  | N#Cc1c(Cl)c2ccccc2n2c1nc1ncccc12 | 16 | 1600 |  |
| ≥ 100 | ≥ 100000 | ≥ 100000 | 0 | 4.51 | 4.6 | 10.4 | 1.8 | 0.8 | < 0.1 | inactive | 5.52 | 0.1 | 5.3 | 2.5 | 0.8 | Active | CC(C)CNc1c(C#N)c2nc3cccnc3n2c2ccccc12 |  | > 100000 | Active |
